# Experimental data reported in patent US4428943A, “(N-Phosphonacetyl-L-aspartato) (1,2-diaminocyclohexane)platinum(II) or alkali metal salt” (priority 1981, dated 1984).
# How the values were obtained:
# [1] = tested on: L1210 leukemia; assay: Survival of mice bearing L1210 leukemia, Pt-268 alone (LD50, optimal dose, therapeutic safety ratio); format: in vivo, mice (BDF1)
# Description: Mice received 10^6 L1210 cells on Day 0 via intraperitoneal route. Pt-268 was given intraperitoneally on Day 1 only in 5% glucose solution.
# Mice received 10^6 L1210 cells on Day 0 via intraperitoneal route. Pt-268 was given intraperitoneally on Days 1, 5, and 9 in 5% glucose solution.
# The BDF1 mice received 10^6 L1210 leukemia cells by I.P. injection on Day 0 and were divided into groups of 10, including a control group of 40 mice. The treated groups were treated on Day 1 only at different dose levels from 10 mg/kg to 200 mg/kg or treated on Days 1, 5, and 9 at dose levels from 2.5 mg/kg to 50 mg/kg.
# [2] = tested on: L1210 cells; assay: Combination of Pt-268 with cisplatin in mice bearing L1210 leukemia (FIG. 4); format: in vivo, BDF1 mice; conditions: 5 mg/kg on Day 3, alone
# Description: Mice were given an inoculum of 10^6 L1210 cells.
# With reference to FIG. 4, BDF1 mice were given an inoculum of 10^6 L1210 cells. On Day 3, one grop received NSC-314926, 5 mg/kg. […] Another group received the two drugs in combination on the same schedule.
# [3] = tested on: Ehrlich ascites carcinoma; assay: Survival times of BDF1 mice bearing the Ehrlich ascites carcinoma; format: in vivo; conditions: Day 1 only; for T/C × 100: treated/control survival time
# Source text: In addition to testing with L1210 leukemia, satisfactory responses against tests by additional animal cancer organisms have been shown as, for example, Ehrlich ascites tumor, melanoma B-16 and Colon 38. Testing was achieved using either the alkali metal (sodium) salt or the free acid.
# Mice received an intraperitoneal inoculation of 10^7 tumor cells on Day 0; treatment was by the intraperitoneal route on Day 1 only. NSC-314926 [N-phosphonacetyl-L-aspartato(1,2-diaminocyclohexane)platinum(II)] was dissolved in 5% dextrose solution. There were 10 mice per group.
# [4] = Solubility; format: physicochemical
# Description: One ml of each of the following solvents dissolved approximately 2 mg of Pt-268: […]
# [5] = Solubility; format: physicochemical; remark: listed apart in the source
substance,measurement,setting,value
"N-phosphonacetyl-L-aspartato(1,2-diaminocyclohexane)platinum(II), Na [Pt-268]",therapeutic safety ratio (LD50/OptD50),[1]; I.P. LD50 / I.P. dose which is 50% of the optimal therapeutic dose,4.5
same,optimal therapeutic dose,"[1]; L1210, I.P., Day 1 only, 5% glucose",approximately 80 mg/kg
same,optimal dose,"[1]; L1210, I.P., Days 1, 5, and 9, 5% glucose",approximately 20 mg/kg
same,LD50,[1]; tumored BDF1 mice (10^6 L1210 cells I.P.),180 mg/kg
same,"effect on median life span, single agent",[2],hardly effective
same,Survival Time,[3]; 5 mg/kg I.P.,16.5 days
same,T/C × 100,[3]; 5 mg/kg I.P.,123
same,Survival Time,[3]; 10 mg/kg I.P.,18.8 days
same,T/C × 100,[3]; 10 mg/kg I.P.,140
same,Survival Time,[3]; 20 mg/kg I.P.,24.3 days
same,T/C × 100,[3]; 20 mg/kg I.P.,181
same,Survival Time,[3]; 40 mg/kg I.P.,25.3 days
same,T/C × 100,[3]; 40 mg/kg I.P.,189
same,Survival Time,[3]; 60 mg/kg I.P.,28.8 days
same,T/C × 100,[3]; 60 mg/kg I.P.,215
same,Survival Time,[3]; 80 mg/kg I.P.,29.0 days
same,T/C × 100,[3]; 80 mg/kg I.P.,216
same,Survival Time,[3]; 100 mg/kg I.P.,31.7 days
same,T/C × 100,[3]; 100 mg/kg I.P.,237
same,Solubility of a 2-mg sample,[4]; CHCl3,very slightly soluble or insoluble
same,Solubility of a 2-mg sample,[4]; acetone,very slightly soluble or insoluble
same,Solubility of a 2-mg sample,[4]; cyclopentanone,very slightly soluble or insoluble
same,Solubility of a 2-mg sample,[4]; dimethylformamide,very slightly soluble or insoluble
same,Solubility of a 2-mg sample,[4]; dimethylsulfoxide,very slightly soluble or insoluble
same,Solubility of a 2-mg sample,[4]; ethanol,very slightly soluble or insoluble
same,Solubility of a 2-mg sample,[4]; heptane,very slightly soluble or insoluble
same,Solubility of a 2-mg sample,[4]; t-butanol,very slightly soluble or insoluble
same,Solubility of a 2-mg sample,[4]; tetrahydrofuran,very slightly soluble or insoluble
same,Solubility in CH3OH,[5]; CH3OH,~ 0.2 mg/ml
same,Solubility in water,[5]; water,~ 175 mg/ml
